Series [1] in a line: preliminary physicochemical stability study in recommended packaging. The note with it: 3 months. Here is the method:
The double packed LDPE bag was then placed inside an aluminum foil bag with appropriate amount of desiccant between the LDPE bag and the aluminum foil bag. The aluminum bag package was then placed in a High-Density PolyEthylene (HDPE) container and stored at temperature below 25° C.

Series [2] is described as follows: Dynamic Vapor Sorption (DVS) water-solid interaction. In kind it is physicochemical. The procedure: Dynamic Vapor Sorption (DVS) The sample was placed into the DVS sample pan and dried under a stream of dry nitrogen at 25° C. with 0% RH. The moisture was gradually introduced into the system with a 10% RH increment up to 90% RH and the humidity was then decreased in a similar trend for desorption phase. The sorption and desorption data were collected with equilibration set to dm/dt 0.004%/min for 5 min/step. The minimum and maximum time for each step were set to 10 and 360 min. Two sorption/desorption cycles were performed.

[3] abbreviates: accelerated condition 40° C./75% RH.
Where [4] appears, read: long term storage condition 25° C./60% RH.

Consider `CC[C@H](Nc1ncnc2nc[nH]c12)c1nc2cccc(F)c2c(=O)n1-c1ccccc1` [amorphous idelalisib, (S)-2-(1-(9H-purin-6-ylamino)propyl)-5-fluoro-3-phenylquinazolin-4(3H)-one], for which, in series [1] (setting [3]), the solid form entry is listed as “remained as amorphous” and the water content change entry is reported as “not increased”. Moreover, in series [1] (setting [4]), the solid form entry is “remained as amorphous” and the water content change result is listed as “not increased”. For the same molecule, the “hygroscopicity (DVS result)” value in series [2] (DVS isotherm, FIG. 4) is recorded as “hygroscopic material”. Moreover, in series [2] (DVS, humidity changing from 0% RH to 90% RH, 25° C.), the moisture uptake entry was “approximately 8.9%”.

These data come from US20170260186A1, “PROCESS OF PREPARING AMORPHOUS FORM OF IDELALISIB” (ScinoPharm Taiwan, Ltd., priority 2016, published 2017).
